The numbers were not newly measured in US7288559B2, “Carboxamide spirohydantoin CGRP receptor antagonists” (Merck + Co, Inc., priority 2003, dated 2007), which cites them from elsewhere.

No end group written: not given here.

In one series the test system is marmoset. The settings on record: electrical stimulation of the trigeminal ganglion.
In a further series the test system is rats. The settings on record: electrical stimulation of the dura mater, prior administration.
A further series has as its system rat. The conditions noted are these: trigeminal ganglion stimulation.

Regarding `NCCCC[C@H](NC(=O)[C@@H](Cc1cc(Br)c(O)c(Br)c1)NC(=O)N1CCC(N2Cc3ccccc3NC2=O)CC1)C(=O)N1CCN(c2ccncc2)CC1` [BIBN4096BS], the “effect on increase in facial blood flow” value in the series on marmoset is recorded as “blocked”.
As to “CGRP(8-37): a peptide CGRP antagonist (VTHRLAGLLSRSGGVVKNNFVPTNVGSKAF; ends and bridges not checked; UniProt P06881 90-119, looked up, fragment)”, the “effect on increase of middle meningeal artery diameter” value in the series with rats is given as “blocked”. In addition, the “effect on increased facial blood flow” value in the series on rat is on record as “inhibited”.
